Literature values in US7378519B2, “Adduct of topiramate and tramadol hydrochloride and uses thereof” (Cilag GmbH International, priority 2002, dated 2008).
Counter-ions that a name gives are not always drawn.

Test system: Chung model of post-nerve constriction injury
Conditions: each drug alone, as the dose is escalated

SMILES | MPE (Maximum Possible Effect) reached [% MPE]
CC1(C)O[C@@H]2[C@@H](CO[C@@]3(COS(N)(=O)=O)OC(C)(C)O[C@@H]23)O1 [topiramate, 2,3:4,5-bis-O-(1-methylethylidene)-β-D-fructopyranose sulfamate] | 100
COc1cccc(C2(O)CCCCC2CN(C)C)c1 (single isomer, unassigned) [tramadol hydrochloride, (1R,2R or 1S,2S)-2-[(dimethylamino)methyl]-1-(3-methoxyphenyl)-cyclohexan-1-ol] | 100
